Measurements: US20050124575A1, “Remedies” (Takara Bio Inc., priority 2002, published 2005)

System: mouse
Assay: Acute toxicity after oral or intraperitoneal administration
Format: in vivo
Details: orally or intraperitoneally administered to a mouse at 1 g/kg

agarose
acute toxicity: No acute toxicity
